Data published in the supplement of paper PMC10307832.

Assays:
Experiment in all cases: relative viability (nuclei count vs DMSO), 5 days (fraction); higher = more cells survive
[1] = tested on: 201T
In short: (§1)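 Five library-drug doses in √10 steps were combined with a fixed anchor-drug dose, or a single drug was given alone, by pin tool to lung cancer cell lines in 1536-well plates the day after seeding. Nuclei were stained and counted after 5 days. Relative viability is the nuclei count in treated wells over that in vehicle wells, taken as the median of duplicate plates.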

[2] = tested on: BEN
In short: as §1

[3] = tested on: EMC-BAC-2
In short: as §1

[4] = tested on: HARA
In short: as §1

[5] = tested on: HCC-44
In short: as §1

[6] = tested on: LCLC-103H
In short: as §1

[7] = tested on: LOU-NH91
In short: as §1

[8] = tested on: NCI-H1395
In short: as §1

[9] = tested on: NCI-H1666
In short: as §1

[10] = tested on: NCI-H1993
In short: as §1

[11] = tested on: NCI-H2009
In short: as §1

[12] = tested on: NCI-H2023
In short: as §1

[13] = tested on: NCI-H2087
In short: as §1

[14] = tested on: NCI-H2126
In short: as §1

[15] = tested on: NCI-H2347
In short: as §1

[16] = tested on: NCI-H23
In short: as §1

[17] = tested on: NCI-H3122
In short: as §1

[18] = tested on: NCI-H441
In short: as §1

[19] = tested on: NCI-H522
In short: as §1

[20] = tested on: NCI-H596
In short: as §1

[21] = tested on: NCI-H647
In short: as §1

[22] = tested on: NCI-H650
In short: as §1

[23] = tested on: NCI-H727
In short: as §1

[24] = tested on: NCI-H838
In short: as §1

Clc1ccc(Nc2nnc(Cc3ccncc3)c3ccccc23)cc1 [Vatalanib] + CC(=O)Nc1cccc(-n2c(=O)n(C3CC3)c(=O)c3c(Nc4ccc(I)cc4F)n(C)c(=O)c(C)c32)c1 [Trametinib] (partner 0.02 µM) gave a relative viability ([1]; first compound 0.04 µM) of 0.718, a relative viability ([1]; first compound 0.1265 µM) of 0.743 and a relative viability ([1]; first compound 0.4 µM) of 0.75. It also gave a relative viability ([1]; first compound 1.265 µM) of 0.731, a relative viability ([1]; first compound 4 µM) of 0.735 and a relative viability ([2]; first compound 0.04 µM) of 1.12. The relative viability ([2]; first compound 0.1265 µM) was 1.04, the relative viability ([2]; first compound 0.4 µM) was 0.976 and the relative viability ([2]; first compound 1.265 µM) was 1.12. For the same molecule, the relative viability ([2]; first compound 4 µM) was 0.977, the relative viability ([3]; first compound 0.04 µM) was 0.902 and the relative viability ([3]; first compound 0.1265 µM) was 0.879. For the same molecule, the relative viability ([3]; first compound 0.4 µM) was 0.908, the relative viability ([3]; first compound 4 µM) was 0.944 and the relative viability ([4]; first compound 0.04 µM) was 0.687. For the same molecule, the relative viability ([4]; first compound 0.1265 µM) was 0.728, the relative viability ([4]; first compound 0.4 µM) was 0.606 and the relative viability ([4]; first compound 1.265 µM) was 0.677. For the same molecule, the relative viability ([4]; first compound 4 µM) was 0.909, the relative viability ([5]; first compound 0.04 µM) was 1.06 and the relative viability ([5]; first compound 0.1265 µM) was 1.07. The relative viability ([5]; first compound 0.4 µM) was 0.959, the relative viability ([5]; first compound 1.265 µM) was 0.994 and the relative viability ([5]; first compound 4 µM) was 1.02. It also gave a relative viability ([6]; first compound 0.04 µM) of 0.663, a relative viability ([6]; first compound 0.1265 µM) of 0.663 and a relative viability ([6]; first compound 0.4 µM) of 0.684. It also gave a relative viability ([6]; first compound 1.265 µM) of 0.653, a relative viability ([6]; first compound 4 µM) of 0.669 and a relative viability ([7]; first compound 0.04 µM) of 0.769. It also gave a relative viability ([7]; first compound 0.1265 µM) of 0.764, a relative viability ([7]; first compound 0.4 µM) of 0.794 and a relative viability ([7]; first compound 1.265 µM) of 0.746. For the same molecule, the relative viability ([7]; first compound 4 µM) was 0.765, the relative viability ([8]; first compound 0.04 µM) was 1.1 and the relative viability ([8]; first compound 0.1265 µM) was 1.03. It also gave a relative viability ([8]; first compound 0.4 µM) of 1.14, a relative viability ([8]; first compound 4 µM) of 0.974 and a relative viability ([9]; first compound 0.04 µM) of 0.83. For the same molecule, the relative viability ([9]; first compound 0.1265 µM) was 0.886, the relative viability ([9]; first compound 0.4 µM) was 0.88 and the relative viability ([9]; first compound 1.265 µM) was 0.912. For the same molecule, the relative viability ([9]; first compound 4 µM) was 0.782, the relative viability ([10]; first compound 0.04 µM) was 0.539 and the relative viability ([10]; first compound 0.1265 µM) was 0.452. It also gave a relative viability ([10]; first compound 0.4 µM) of 0.54, a relative viability ([10]; first compound 1.265 µM) of 0.459 and a relative viability ([10]; first compound 4 µM) of 0.49. It also gave a relative viability ([11]; first compound 0.04 µM) of 0.32, a relative viability ([11]; first compound 0.1265 µM) of 0.251 and a relative viability ([11]; first compound 0.4 µM) of 0.325. For the same molecule, the relative viability ([11]; first compound 1.265 µM) was 0.307, the relative viability ([11]; first compound 4 µM) was 0.263 and the relative viability ([12]; first compound 0.04 µM) was 0.5. For the same molecule, the relative viability ([12]; first compound 0.1265 µM) was 0.529, the relative viability ([12]; first compound 0.4 µM) was 0.477 and the relative viability ([12]; first compound 1.265 µM) was 0.503. It also gave a relative viability ([12]; first compound 4 µM) of 0.517, a relative viability ([13]; first compound 0.04 µM) of 0.245 and a relative viability ([13]; first compound 0.1265 µM) of 0.197. The relative viability ([13]; first compound 0.4 µM) was 0.249, the relative viability ([13]; first compound 1.265 µM) was 0.194 and the relative viability ([13]; first compound 4 µM) was 0.179. For the same molecule, the relative viability ([14]; first compound 0.04 µM) was 0.539, the relative viability ([14]; first compound 0.1265 µM) was 0.612 and the relative viability ([14]; first compound 0.4 µM) was 0.591. For the same molecule, the relative viability ([14]; first compound 1.265 µM) was 0.528, the relative viability ([14]; first compound 4 µM) was 0.536 and the relative viability ([15]; first compound 0.04 µM) was 0.278. The relative viability ([15]; first compound 0.1265 µM) was 0.277, the relative viability ([15]; first compound 0.4 µM) was 0.279 and the relative viability ([15]; first compound 1.265 µM) was 0.266. It also gave a relative viability ([15]; first compound 4 µM) of 0.309, a relative viability ([16]; first compound 0.04 µM) of 0.308 and a relative viability ([16]; first compound 0.1265 µM) of 0.296. For the same molecule, the relative viability ([16]; first compound 0.4 µM) was 0.356, the relative viability ([16]; first compound 1.265 µM) was 0.363 and the relative viability ([16]; first compound 4 µM) was 0.419. For the same molecule, the relative viability ([17]; first compound 0.04 µM) was 0.239, the relative viability ([17]; first compound 0.1265 µM) was 0.229 and the relative viability ([17]; first compound 0.4 µM) was 0.238. For the same molecule, the relative viability ([17]; first compound 1.265 µM) was 0.244, the relative viability ([17]; first compound 4 µM) was 0.212 and the relative viability ([18]; first compound 0.04 µM) was 0.435. For the same molecule, the relative viability ([18]; first compound 0.1265 µM) was 0.366, the relative viability ([18]; first compound 0.4 µM) was 0.476 and the relative viability ([18]; first compound 1.265 µM) was 0.411. For the same molecule, the relative viability ([18]; first compound 4 µM) was 0.421, the relative viability ([19]; first compound 0.04 µM) was 0.73 and the relative viability ([19]; first compound 0.1265 µM) was 0.714. For the same molecule, the relative viability ([19]; first compound 0.4 µM) was 0.714, the relative viability ([19]; first compound 1.265 µM) was 0.754 and the relative viability ([19]; first compound 4 µM) was 0.882. For the same molecule, the relative viability ([20]; first compound 0.04 µM) was 0.782, the relative viability ([20]; first compound 0.1265 µM) was 0.88 and the relative viability ([20]; first compound 0.4 µM) was 0.76. It also gave a relative viability ([20]; first compound 1.265 µM) of 0.751, a relative viability ([20]; first compound 4 µM) of 0.75 and a relative viability ([21]; first compound 0.04 µM) of 0.538. It also gave a relative viability ([21]; first compound 0.1265 µM) of 0.614, a relative viability ([21]; first compound 0.4 µM) of 0.581 and a relative viability ([21]; first compound 1.265 µM) of 0.407. For the same molecule, the relative viability ([21]; first compound 4 µM) was 0.499, the relative viability ([22]; first compound 0.04 µM) was 0.941 and the relative viability ([22]; first compound 0.1265 µM) was 0.796. It also gave a relative viability ([22]; first compound 0.4 µM) of 0.997, a relative viability ([22]; first compound 1.265 µM) of 0.924 and a relative viability ([22]; first compound 4 µM) of 0.904. It also gave a relative viability ([23]; first compound 0.1265 µM) of 0.413, a relative viability ([23]; first compound 0.4 µM) of 0.377 and a relative viability ([23]; first compound 1.265 µM) of 0.37. For the same molecule, the relative viability ([23]; first compound 4 µM) was 0.394, the relative viability ([24]; first compound 0.04 µM) was 0.575 and the relative viability ([24]; first compound 0.1265 µM) was 0.539. For the same molecule, the relative viability ([24]; first compound 0.4 µM) was 0.657, the relative viability ([24]; first compound 1.265 µM) was 0.462 and the relative viability ([24]; first compound 4 µM) was 0.509.
